Data: US20100278858A1, “PROCESS FOR PREPARING […] STRAINS” (priority 2007, published 2010)
Converted amounts (≈) assume the structure as drawn.

Tests used:
Assay in all cases: method of reducing viral plates (plaque reduction)
[1] = test system: HSV-1 TK^− B2006; type: cell-based; settings: for IC50: Human alphaherpesvirus 1; for Relative resistance (RR): IC50 of HSV-1 TK^− B2006 / IC50 of HSV-1 (F)
Procedure: (§1) According to the present invention, a method of reducing the viral plates comprises the following process: Vero cells monolayers developed in 24 wells microplates are infected with 50 UFP/well of virus in the absence or presence of different compounds concentrations. Each dilution is tested by duplicate. After 1 hour adsorption at 37° C., the inoculum is removed and covered by plating medium (culture media with methylcellulose at a final concentration of 0.7%). Inoculation is continued till the viral plates' appearance, which are then counted after fitting and dying the cells with violet crystal. Moreover, according to the present invention, 50% inhibitory concentration (IC50) means the compound concentration required for reducing about 50% the number of viral plates.
(§2) Thus, preliminary tests of the cloned variants of passages with greater selection pressure of 1C3 (17, 20 and 21) with pyrimidine and purine analogous as aciclovir (ACV) and brivudin (BVDU) would disclose alterations at viral TK level as it is shown in Table VIII, a characteristic that, up to date, has not been published in previous art documents. The TK gene is not essential for the in vitro viral replication, though in vivo, is involved in the virulence, pathogenicity and reactivation since latency (Andrei G et al., 2005). […] Therefore, the selection pressure to which the viruses were subjected could have selected mutations in the TK gene and in additional superimposing genes generating strains with less in vivo pathogenic action (Jacobson J et al., 1993).

[2] = test system: HSV-1 (F); type: cell-based; settings: Human alphaherpesvirus 1; Table VIII; strain HSV-1 (F); read-out: IC50
Procedure: as §1
(§3) Compounds were present during the viral adsorption (1h, 37° C.) and after the infection. When a cytopathic action (ACP) between 80-90%, during a period among 24 to 72 hours p.i., was observed, cells were lysed with freeze-thawing cycles. In order to remove cellular moieties, the cellular lisate was centrifuged during 10 min at 1000 rpm, keeping the supernatant at −70° C. The supernatant was used to infect a new monolayer in the presence of SAMMA or PRO2000. […] The title and the IC50 of each viral passage was determined by viral plates reduction test (or after 2-3 passages) against SAMMA or PRO20000.

[3] = test system: 1C3 syn 17-3; type: cell-based, HSV-1; settings: for IC50: Human alphaherpesvirus 1, strain 1C3 syn 17-3, read-out: IC50; for Relative resistance (RR): IC50 of clone 1C3 syn 17-3 / IC50 of HSV-1 (F)
Procedure: as §1, §2

[4] = test system: 1C3 syn 20-1; type: cell-based, HSV-1; settings: for IC50: Human alphaherpesvirus 1, strain 1C3 syn 20-1, read-out: IC50; for Relative resistance (RR): IC50 of clone 1C3 syn 20-1 / IC50 of HSV-1 (F)
Procedure: as §1, §2

[5] = test system: 1C3 syn 21-3; type: cell-based, HSV-1; settings: for IC50: Human alphaherpesvirus 1, strain 1C3 syn 21-3, read-out: IC50; for Relative resistance (RR): IC50 of clone 1C3 syn 21-3 / IC50 of HSV-1 (F)
Procedure: as §1, §2

[6] = test system: 1C3 syn 17-1; type: cell-based, HSV-1; settings: for IC50: Human alphaherpesvirus 1, strain 1C3 syn 17-1, read-out: IC50; for Relative resistance (RR): IC50 of clone 1C3 syn 17-1 / IC50 of HSV-1 (F)
Procedure: as §1, §2

[7] = test system: 1C3 syn 20-3; type: cell-based, HSV-1; settings: for IC50: Human alphaherpesvirus 1, strain 1C3 syn 20-3, read-out: IC50; for Relative resistance (RR): IC50 of clone 1C3 syn 20-3 / IC50 of HSV-1 (F)
Procedure: as §1, §2

[8] = test system: 1C3 syn 21-1; type: cell-based, HSV-1; settings: for IC50: Human alphaherpesvirus 1, strain 1C3 syn 21-1, read-out: IC50; for Relative resistance (RR): IC50 of clone 1C3 syn 21-1 / IC50 of HSV-1 (F)
Procedure: as §1, §2

[9] = test system: 1C3 syn 20-2; type: cell-based, HSV-1; settings: for IC50: Human alphaherpesvirus 1; for Relative resistance (RR): IC50 of clone 1C3 syn 20-2 / IC50 of HSV-1 (F)
Procedure: as §1, §2

[10] = test system: 1C3 syn 17-2; type: cell-based, HSV-1; settings: for IC50: Human alphaherpesvirus 1, strain 1C3 syn 17-2, read-out: IC50; for Relative resistance (RR): IC50 of clone 1C3 syn 17-2 / IC50 of HSV-1 (F)
Procedure: as §1, §2

[11] = test system: 1C3 syn 21-2; type: cell-based, HSV-1; settings: for IC50: Human alphaherpesvirus 1, strain 1C3 syn 21-2, read-out: IC50; for Relative resistance (RR): IC50 of clone 1C3 syn 21-2 / IC50 of HSV-1 (F)
Procedure: as §1, §2

[12] = test system: 1C3-syn-14-1; type: cell-based, HSV-1; settings: for IC50: Human alphaherpesvirus 1, strain 1C3 syn 14-1, read-out: IC50; for IC50 / Relative resistance (RR): Table VIII; for Relative resistance (RR): IC50 of clone 1C3 syn 14-1 / IC50 of HSV-1 (F); for susceptibility of variant to drug (in words): variant 1C3-syn-14-1
Procedure: as §1, §3

Nc1nc2c(ncn2COCCO)c(=O)[nH]1 [Aciclovir, aciclovir]
IC50 [1]: > 0.5 µg/mL
Relative resistance (RR) [1]: 10.0
IC50 [2]: 0.05 µg/mL (≈ 0.222 µM)
IC50 [3]: 0.2 µg/mL (≈ 0.888 µM)
Relative resistance (RR) [3]: 4.0
IC50 [4]: 0.4 µg/mL (≈ 1.78 µM)
Relative resistance (RR) [4]: 8.0
IC50 [5]: 0.2 µg/mL (≈ 0.888 µM)
Relative resistance (RR) [5]: 4.0
IC50 [6]: 0.28 µg/mL (≈ 1.24 µM)
Relative resistance (RR) [6]: 5.6
IC50 [7]: 0.2 µg/mL (≈ 0.888 µM)
Relative resistance (RR) [7]: 4.0
IC50 [8]: 0.2 µg/mL (≈ 0.888 µM)
Relative resistance (RR) [8]: 4.0
IC50 [9]: 0.2 µg/mL (≈ 0.888 µM)
Relative resistance (RR) [9]: 4.0
IC50 [10]: 0.2 µg/mL (≈ 0.888 µM)
Relative resistance (RR) [10]: 4.0
IC50 [11]: 0.4 µg/mL (≈ 1.78 µM)
Relative resistance (RR) [11]: 8.0
IC50 [12]: 0.1 µg/mL (≈ 0.444 µM)
Relative resistance (RR) [12]: 2.0
susceptibility of variant to drug (in words) [12]: rare resistance

O=c1[nH]c(=O)n([C@H]2C[C@H](O)[C@@H](CO)O2)cc1/C=C/Br [Brivudin, brivudin]
IC50 [1]: > 0.16 µg/mL
Relative resistance (RR) [1]: 16.0
IC50 [2]: 0.01 µg/mL (≈ 0.03 µM)
IC50 [3]: 0.08 µg/mL (≈ 0.24 µM)
Relative resistance (RR) [3]: 8.0
IC50 [4]: 0.08 µg/mL (≈ 0.24 µM)
Relative resistance (RR) [4]: 8.0
IC50 [5]: 0.06 µg/mL (≈ 0.18 µM)
Relative resistance (RR) [5]: 6.0
IC50 [6]: 0.08 µg/mL (≈ 0.24 µM)
Relative resistance (RR) [6]: 8.0
IC50 [7]: 0.06 µg/mL (≈ 0.18 µM)
Relative resistance (RR) [7]: 6.0
IC50 [8]: 0.04 µg/mL (≈ 0.12 µM)
Relative resistance (RR) [8]: 4.0
IC50 [9]: 0.05 µg/mL (≈ 0.15 µM)
Relative resistance (RR) [9]: 5.6
IC50 [10]: 0.13 µg/mL (≈ 0.39 µM)
Relative resistance (RR) [10]: 13.0
IC50 [11]: 0.06 µg/mL (≈ 0.18 µM)
Relative resistance (RR) [11]: 6.0
IC50 [12]: 0.02 µg/mL (≈ 0.06 µM)
Relative resistance (RR) [12]: 2.0
susceptibility of variant to drug (in words) [12]: rare resistance
